Assay [1] addresses T1, PP2Cβ (Bos taurus, UniProt O62830).
T1 construct: inferred from the Ni-NTA purification; made in house; host or cells: E. coli
T1 sequence (O62830 1-484): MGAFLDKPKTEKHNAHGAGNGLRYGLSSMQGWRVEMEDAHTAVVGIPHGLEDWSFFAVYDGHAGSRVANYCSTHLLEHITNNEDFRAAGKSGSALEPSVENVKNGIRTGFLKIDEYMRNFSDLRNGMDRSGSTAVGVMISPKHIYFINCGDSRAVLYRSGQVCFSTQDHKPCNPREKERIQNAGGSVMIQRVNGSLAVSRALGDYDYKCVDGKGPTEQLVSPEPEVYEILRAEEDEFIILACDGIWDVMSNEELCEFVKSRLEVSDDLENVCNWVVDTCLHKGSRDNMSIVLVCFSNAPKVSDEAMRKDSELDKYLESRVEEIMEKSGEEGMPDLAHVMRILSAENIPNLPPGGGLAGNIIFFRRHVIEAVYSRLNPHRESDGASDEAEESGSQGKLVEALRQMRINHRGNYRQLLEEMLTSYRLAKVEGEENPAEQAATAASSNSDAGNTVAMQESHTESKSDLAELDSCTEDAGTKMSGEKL
The assay is described as follows: Dephosphorylation of phospho-BAD by PP2Cβ, Mg2+-dependence. Format: biochemical, bovine. On the procedure: Dephosphorylation of phospho-BAD by PP2C is assayed in vitro using recombinant BAD (Lizcano, J. M., Morrice, N. and Cohen, P. (2000) Regulation of Bad by cAMP-dependent protein kinase is mediated via phosphorylation of a novel site, Ser^155. Biochem. J. Vol: 349, 547-557) kindly provided by Sir Philip Cohen, Dundee, UK. cDNA encoding PP2Cβ from bovine brain was expressed in E. Coli and purified using Ni-NTA-Sepharose. (J. Neurosci. Res. 51, 328-338 (1998) Protein phosphatase type-2C isozymes present in vertebrate retinae: purification, characterization, and localization in photoreceptors.)
Incubations were carried out for 30 min at 37° C. The reaction mixture (12 μl) contained 12 μg BAD (GST-fusion protein) (Lizcano et al. (2000) Biochem. J. 349, 547-557), 0.55 μg PKA (Sigma), 1 μM ATP, 15 μCi [γ-^32P]ATP, 5 mM MgCl2 and 25 mM Tris/HCl pH 7.5. After incubation at 37° C. for 30 min, hot and cold ATP were removed by centrisep centrifugation columns. […]
Dephosphorylation of [^32P]BAD depends on the time of incubating PP2Cβ together with the substrate phospho-BAD which is cleaved to give phosphate and BAD. The concentration of [^32P]BAD is measured in this assay, therefore intensive spots on the X-ray sensitive film represent high concentrations of [^32P]BAD, in other words low activity of the enzyme PP2Cβ.

For assay [2], the system named is PP2C. To be noted: cited from earlier work.

Entries after “also recorded” stand apart in the source; their conditions may differ.

As for `[Mg+2]` [Mg^2+], in assay [1], the “Effect of Mg2+ ions on enzymatic activity of PP2C (dephosphorylation of BAD)” value is listed as “requires the presence of Mg^2+-ions; also recorded: increases the enzymatic activity”.

With `C=C1[C@@H](O)[C@@H]2O[C@]3(CC[C@H](/C=C/[C@@H](C)[C@@H]4CC(C)=C[C@@]5(O[C@H](C[C@@](C)(O)C(=O)O)CC[C@H]5O)O4)O3)CC[C@H]2O[C@@H]1[C@@H](O)C[C@H](C)[C@H]1O[C@@]2(CCCCO2)CC[C@H]1C` [okadaic acid], the “Sensitivity of PP2C activity to inhibitor” value in assay [2] is listed as “not sensitive”.

Source of the values: US20030044875A1, “Substrate for PP2C” (Schering AG, priority 2001, published 2003).
